Earlier results, collected in patent US20200061109A1, “ZINC CHLORIDE HYDROXIDE HAVING EXCELLENT ZINC ION SUSTAINED-RELEASABILITY AND PRODUCTION METHOD THEREFOR” (JFE MINERAL COMPANY, LTD., priority 2016, published 2020).

Tests used:
skin = conditions: in vivo

SMILES: [Zn+2] [Zn^2+ ions]
- concentration at which no toxicity is shown against fibroblasts (fibroblasts): no more than 500 μmol/L
- level that increases inflammatory cell infiltration of skin and significantly delays re-epithelialization (skin): not less than 15 mmol/L
